Common to all, as to conditions: crude E. coli lysate 70 µg/mL protein, 0.1 M Na-phosphate pH 7, 37 °C
One assay has as its target T1, AcAlT (Komagataella phaffii, UniProt C4QX24).
T1 construct: gene PAS_chr1-1_0419; codon-optimized gene in pET15b (pAPS07), E. coli BL21-DE3 strain SSL26; crude lysate
T1 sequence (C4QX24 1-452): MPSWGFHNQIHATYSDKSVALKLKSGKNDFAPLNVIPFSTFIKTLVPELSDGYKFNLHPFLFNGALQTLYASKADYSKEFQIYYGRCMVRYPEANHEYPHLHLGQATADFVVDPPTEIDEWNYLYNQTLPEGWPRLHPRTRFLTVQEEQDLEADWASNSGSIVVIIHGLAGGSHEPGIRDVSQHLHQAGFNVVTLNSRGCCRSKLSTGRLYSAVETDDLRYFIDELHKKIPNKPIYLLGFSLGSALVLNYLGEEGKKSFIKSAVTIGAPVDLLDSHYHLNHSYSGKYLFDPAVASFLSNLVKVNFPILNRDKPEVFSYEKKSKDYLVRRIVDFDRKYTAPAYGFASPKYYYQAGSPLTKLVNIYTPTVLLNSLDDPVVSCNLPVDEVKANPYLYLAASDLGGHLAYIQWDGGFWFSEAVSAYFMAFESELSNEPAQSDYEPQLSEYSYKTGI
Description: p-nitrophenol release, absorbance […] nm. In kind it is biochemical.

For the next assay, the target named is EEB1 (Saccharomyces cerevisiae, UniProt Q02891).
EEB1, sequence (Q02891 whole entry): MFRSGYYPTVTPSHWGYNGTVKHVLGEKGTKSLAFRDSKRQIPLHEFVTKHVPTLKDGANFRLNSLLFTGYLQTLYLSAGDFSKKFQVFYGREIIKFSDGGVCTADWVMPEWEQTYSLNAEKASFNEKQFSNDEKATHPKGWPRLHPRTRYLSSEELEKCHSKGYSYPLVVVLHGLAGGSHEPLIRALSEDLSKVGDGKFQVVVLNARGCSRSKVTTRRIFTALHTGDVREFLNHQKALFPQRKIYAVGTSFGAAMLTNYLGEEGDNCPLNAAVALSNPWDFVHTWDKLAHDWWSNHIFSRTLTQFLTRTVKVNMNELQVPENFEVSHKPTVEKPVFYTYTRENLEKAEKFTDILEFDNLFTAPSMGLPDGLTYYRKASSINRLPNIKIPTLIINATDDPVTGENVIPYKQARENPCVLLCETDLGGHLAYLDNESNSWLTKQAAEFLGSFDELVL
In a further assay the target is T2, CE (Brettanomyces bruxellensis, UniProt A0A7D9GZZ0).
T2 construct: gene DEBR0S1_34310G; crude lysate
T2 sequence (A0A7D9GZZ0 entry or part of it): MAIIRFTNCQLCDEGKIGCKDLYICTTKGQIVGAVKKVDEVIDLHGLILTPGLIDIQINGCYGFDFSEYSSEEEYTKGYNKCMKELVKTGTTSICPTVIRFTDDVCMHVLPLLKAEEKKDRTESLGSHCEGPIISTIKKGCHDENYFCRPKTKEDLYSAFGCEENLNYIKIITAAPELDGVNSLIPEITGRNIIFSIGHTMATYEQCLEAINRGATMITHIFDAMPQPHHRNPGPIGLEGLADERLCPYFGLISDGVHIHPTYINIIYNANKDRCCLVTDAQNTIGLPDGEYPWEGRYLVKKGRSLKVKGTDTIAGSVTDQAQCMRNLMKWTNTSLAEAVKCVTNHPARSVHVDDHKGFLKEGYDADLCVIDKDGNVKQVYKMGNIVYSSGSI
Description: p-nitrophenol release, absorbance […] nm. It counts as biochemical.

Another assay concerns the target T3, tEstA (Pseudomonas aeruginosa, UniProt O33407).
T3 construct: gene estA; crude lysate
Description: p-nitrophenol release, absorbance […] nm. It counts as biochemical.

Molecules are shown by their SMILES.

T3 sequence (O33407 25-646): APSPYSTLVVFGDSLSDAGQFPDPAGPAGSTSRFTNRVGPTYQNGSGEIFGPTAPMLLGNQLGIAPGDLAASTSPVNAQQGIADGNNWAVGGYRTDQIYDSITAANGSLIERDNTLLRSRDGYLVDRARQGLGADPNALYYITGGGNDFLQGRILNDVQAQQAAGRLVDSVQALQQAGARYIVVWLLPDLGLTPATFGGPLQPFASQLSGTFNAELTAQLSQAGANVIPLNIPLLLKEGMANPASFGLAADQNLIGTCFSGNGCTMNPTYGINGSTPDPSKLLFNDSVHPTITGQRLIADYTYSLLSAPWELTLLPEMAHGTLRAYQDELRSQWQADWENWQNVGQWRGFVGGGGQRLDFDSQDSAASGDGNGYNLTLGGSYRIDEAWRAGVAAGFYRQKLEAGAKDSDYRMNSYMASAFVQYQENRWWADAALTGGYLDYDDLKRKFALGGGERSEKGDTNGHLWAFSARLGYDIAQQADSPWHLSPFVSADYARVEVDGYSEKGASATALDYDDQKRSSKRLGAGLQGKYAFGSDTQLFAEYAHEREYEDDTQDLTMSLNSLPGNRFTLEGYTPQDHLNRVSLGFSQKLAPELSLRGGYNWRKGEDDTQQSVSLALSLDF

Take `CC(=O)Oc1ccc([N+](=O)[O-])cc1` [p-nitrophenyl acetate]: the KM entry on AcAlT was “AcAlT, despite being acyltransferase, showed the second highest efficiency and relatively lower KM”; on EEB1 it was “KM values revealed that EEB1 exhibited the highest catalytic efficiency for pNPA hydrolysis”; on CE, “CE and tEstA, on the other hand, indicated relatively moderate hydrolysis activity with higher KM”; on tEstA, “CE and tEstA, on the other hand, indicated relatively moderate hydrolysis activity with higher KM”.

These data come from article PMC10319855, “Unravelling the hidden power of esterases for biomanufacturing of short-chain esters” (Scientific Reports, 2023).
